Experimental data as given in paper PMC6161599, “Inhibition of O-acetylserine sulfhydrylase by fluoroalanine derivatives” (Journal of Enzyme Inhibition and Medicinal Chemistry, 2018).

Legend:
Type in all cases: biochemical
[1] = molecular target: T1, O-acetylserine sulfhydrylase B (OASS-B, CysM) (Salmonella enterica, UniProt P29848); assay: ninhydrin cysteine activity assay; PLP absorbance and fluorescence changes
T1 construct: recombinant STOASS-B, His-tag removed with factor Xa

[2] = molecular target: T2, O-acetylserine sulfhydrylase A (OASS-A, CysK) (Salmonella enterica, UniProt P0A1E3); assay: ninhydrin cysteine activity assay; PLP absorbance ([…] to […] nm) and fluorescence changes
T2 construct: recombinant STOASS-A, His-tag removed with factor Xa

[3] = molecular target: T1, O-acetylserine sulfhydrylase B (OASS-B, CysM); assay: ninhydrin cysteine activity assay; inactivation kinetics; PLP absorbance and fluorescence changes
[4] = molecular target: T2, O-acetylserine sulfhydrylase A (OASS-A, CysK); assay: as above

T1 sequence (P29848 whole entry): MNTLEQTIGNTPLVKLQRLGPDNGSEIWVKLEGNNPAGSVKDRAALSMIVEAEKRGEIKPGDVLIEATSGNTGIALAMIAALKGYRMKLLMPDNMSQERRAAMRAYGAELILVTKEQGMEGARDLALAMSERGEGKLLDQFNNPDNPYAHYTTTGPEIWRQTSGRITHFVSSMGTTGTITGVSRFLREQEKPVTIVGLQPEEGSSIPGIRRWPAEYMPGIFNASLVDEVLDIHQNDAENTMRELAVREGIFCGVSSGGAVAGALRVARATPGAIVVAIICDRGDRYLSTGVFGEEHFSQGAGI
T2 sequence (P0A1E3 2-323): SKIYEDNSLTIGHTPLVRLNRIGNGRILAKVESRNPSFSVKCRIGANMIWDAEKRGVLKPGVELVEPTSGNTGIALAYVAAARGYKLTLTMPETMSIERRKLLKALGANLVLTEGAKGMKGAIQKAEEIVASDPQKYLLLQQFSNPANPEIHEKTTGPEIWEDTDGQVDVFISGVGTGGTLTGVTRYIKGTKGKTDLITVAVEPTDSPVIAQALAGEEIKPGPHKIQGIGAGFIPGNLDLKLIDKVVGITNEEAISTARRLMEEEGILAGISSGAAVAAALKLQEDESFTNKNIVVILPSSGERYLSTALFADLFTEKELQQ

SMILES | IC50 [1] [mM] | IC50 [2] [µM] | IC50 [3] [µM] | IC50 [4] [µM]
NC(CF)C(=O)O (stereo not shown) [F-Ala, monofluoroalanine] | 1.29 ± 0.23 | 480 ± 50 |  | 
N[C@H](C(=O)O)C(F)(F)F [triF-Ala, β,β,β-trifluoroalanine] |  |  | 940 ± 60 | 130 ± 10
